# Experimental data as given in patent EP2575807B1, “FORMULATION BASED ON SULPIRIDE AND A SYNERGISTIC HOMEOPATHIC COMPOSITION FOR TREATMENT OF DEPRESSIVE SYNDROME” (Novak, Maja, priority 2010, dated 2011).
# Legend:
# [1] = tested on: women suffering of depressive syndrome; assay: Controlled study of antidepressant activity, Hamilton rating scale for depression (HAMD test); format: in vivo
# Protocol: They are divided onto two groups by randomization: • (i) A control group (N = 32) received once-a-day combined (in the same syringe) dose of 20 mg of sulpiride (1; 0.4 mL) diluted with physiological solution (2.0 mL) by subcutaneous injection during three months (90 days).
# The duration of administering was three months (90 days; also subcutaneously).
# Neurosurg. Psychiatr. […] Psychiatr.
# For the 17-item version of HAMD test, scores can range from 0 to 54. […]
# The above results were subjected to paired T-test. […] Paired T-test is usually chosen to establish the difference between groups, i.e. their mean values during the Study.
# The study was followed by the use of Hamilton rating scale for depression (HAMD test).
# [2] = cited from earlier work
smiles,measurement,setting,value
"CCN1CCCC1CNC(=O)c1cc(S(N)(=O)=O)ccc1OC (racemic) [sulpiride, (R,S)-(±)-5-(aminosulfonyl)-N-[(1-ethylpyrrolidin-2-yl)methyl]-2-methoxybenzamide]",HAMD,"[1]; After the Study, once-a-day subcutaneous injection, 20 mg of sulpiride, three months (90 days)",17.34 ± 8.77
same,HAMD,"[1]; Before the Study (baseline), 17-item HAMD score, range 0 to 54",18.91 ± 9.19
same,"Mean difference (paired T-test, HAMD before vs after the Study)","[1]; once-a-day subcutaneous injection, 20 mg of sulpiride, 90 days",1.60
same,oral bioavailability,[2],25-35%
